Here are results for 6 compounds from US9617267B2, “Compounds and methods for kinase modulation, and indications therefor” (Plexxikon Inc., priority 2009, dated 2017).

The target in data set [1] is B-Raf (Homo sapiens (Human), UniProt P15056). The data set is described as follows: B-Raf kinase activity biochemical assay (AlphaScreen, biotin-MEK1 phosphorylation). As to conditions: B-Raf. A digest of the protocol:
(§1)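 Biotin-MEK1 phosphorylation measured after 45 min kinase reaction at RT with 100 μM ATP final; compounds tested at 8 points from 0.1 mM DMSO stock.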
In general terms: Bead proximity is the source of the signal in Alpha formats.

The subject of data set [2] is B-Raf. The data set is described as above. As to conditions: for Biochemical activity ratio B/V600E: ratio of IC50 B-Raf / B-Raf V600E; for Biochemical activity ratio B/C: ratio of IC50 B-Raf / c-Raf-1. A digest of the protocol: as §1
Data set [3] has as its target B-Raf V600E (Homo sapiens (Human), UniProt P15056, V600E). The data set is described as follows: B-Raf V600E kinase activity biochemical assay (AlphaScreen, biotin-MEK1 phosphorylation). The conditions noted are these: for IC50: B-Raf V600E; for Biochemical activity ratio V600E/C: ratio of IC50 B-Raf V600E / c-Raf-1. A digest of the protocol: as §1
In data set [4] the target is c-Raf-1 (Homo sapiens, UniProt P04049). The data set is described as follows: c-Raf-1 kinase activity biochemical assay (AlphaScreen, biotin-MEK1 phosphorylation). The procedure, abridged: as §1
Data set [5] in a line: Relative solubility by turbidity threshold concentration in aqueous buffers (pH 1.5, 4.5, 6.8, 7.4). The conditions noted are these: for turbidity threshold (L, M, H) 1.4: pH 1.4 [sic] (method: SGF pH 1.5); for turbidity threshold (L, M, H) 4.5: pH 4.5 (SIF); for turbidity threshold (L, M, H) 6.8: pH 6.8 (SIF); for turbidity threshold (L, M, H) 7.4: pH 7.4 (HEPES). Type of data set: physicochemical. A digest of the protocol: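 Solubility class (high >250 μM, moderate 31.3–250 μM, low <31.3 μM) comes from the concentration where absorbance reaches a 0.01 threshold, averaged across 490/535/650 nm. Samples were compound dilutions from DMSO stock, 1 μL into 99 μL buffer at pH 1.5, 4.5, 6.8 or 7.4.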

Data set [6] deals with CYP1A2 (Homo sapiens (Human), UniProt P05177). The data set is described as follows: CYP enzyme inhibition, fluorescent substrate (CEC). A digest of the protocol: (§2)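 Ten-point 1:1 compound dilutions in NADPH-regenerating cofactor mix, pre-incubated 10 min at 37 °C before enzyme/substrate addition: CYP1A2 0.5 pmol with 5 μM CEC, 15 min, 409 ex/460 em; CYP2D6 1.5 pmol with 1.5 μM AMMC, 30 min, 409 ex/530 em. IC50 from fluorescent product vs concentration.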

In data set [7] the target is CYP2C19 (Homo sapiens (Human), UniProt P33261). Briefly: CYP enzyme inhibition, fluorescent substrate (CEC). The conditions noted are these: read-out: Cyp IC50 2C19; CYP2C19, substrate CEC. A digest of the protocol:
(§3)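 IC50 values come from plotting product fluorescence against compound concentration; inhibition lowers formation of the fluorescent metabolite. Ten-point twofold dilutions in co-factor mix were held 10 minutes at 37 °C before the enzyme reaction, also run at 37 °C.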

Data set [8] concerns the target CYP2C9 (Homo sapiens (Human), UniProt P11712). The data set is described as follows: CYP enzyme inhibition, fluorescent substrate (MFC). The procedure, abridged: as §3
The target of data set [9] is CYP2D6 (Homo sapiens (Human), UniProt P10635). Briefly: CYP enzyme inhibition, fluorescent substrate (AMMC). The data set is classed as in vitro ADME. The conditions noted are these: read-out: Cyp IC50 2D6. The procedure, abridged: as §2
The target in data set [10] is CYP3A4(BFC) (Homo sapiens (Human), UniProt P08684). Briefly: CYP enzyme inhibition, fluorescent substrate BFC. A digest of the protocol:
as §3

In data set [11] the target is CYP3A4(BQ) (Homo sapiens (Human), UniProt P08684). Briefly: CYP enzyme inhibition, fluorescent substrate BQ. The procedure, abridged:
as §3

[12] abbreviates: read-out: Cyp IC50 2C9, CYP2C9, substrate MFC.
Setting [13] is: read-out: Cyp IC50 3A4(BFC), CYP3A4, substrate BFC.
The mark [14] stands for this setting: read-out: Cyp IC50 3A4(BQ), CYP3A4, substrate BQ.

A word on the IC50: it is the midpoint of a concentration-inhibition curve.

Like-named read-outs stand apart in the source and are kept apart here.

CYP2C19, sequence (P33261 whole entry): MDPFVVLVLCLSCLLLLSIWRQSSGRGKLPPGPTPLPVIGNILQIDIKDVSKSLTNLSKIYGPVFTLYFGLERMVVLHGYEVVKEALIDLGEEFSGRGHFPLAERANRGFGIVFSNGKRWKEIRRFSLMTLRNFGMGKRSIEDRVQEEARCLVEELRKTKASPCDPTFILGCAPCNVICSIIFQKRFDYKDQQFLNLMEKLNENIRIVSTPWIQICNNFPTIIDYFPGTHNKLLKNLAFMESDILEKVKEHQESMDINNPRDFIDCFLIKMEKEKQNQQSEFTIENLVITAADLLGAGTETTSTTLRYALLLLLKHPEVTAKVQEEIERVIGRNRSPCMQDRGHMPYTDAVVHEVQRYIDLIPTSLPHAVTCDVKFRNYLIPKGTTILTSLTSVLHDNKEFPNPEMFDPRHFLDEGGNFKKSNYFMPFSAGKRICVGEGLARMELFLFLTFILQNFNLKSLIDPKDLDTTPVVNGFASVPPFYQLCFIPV
CYP3A4(BQ), sequence (P08684 whole entry): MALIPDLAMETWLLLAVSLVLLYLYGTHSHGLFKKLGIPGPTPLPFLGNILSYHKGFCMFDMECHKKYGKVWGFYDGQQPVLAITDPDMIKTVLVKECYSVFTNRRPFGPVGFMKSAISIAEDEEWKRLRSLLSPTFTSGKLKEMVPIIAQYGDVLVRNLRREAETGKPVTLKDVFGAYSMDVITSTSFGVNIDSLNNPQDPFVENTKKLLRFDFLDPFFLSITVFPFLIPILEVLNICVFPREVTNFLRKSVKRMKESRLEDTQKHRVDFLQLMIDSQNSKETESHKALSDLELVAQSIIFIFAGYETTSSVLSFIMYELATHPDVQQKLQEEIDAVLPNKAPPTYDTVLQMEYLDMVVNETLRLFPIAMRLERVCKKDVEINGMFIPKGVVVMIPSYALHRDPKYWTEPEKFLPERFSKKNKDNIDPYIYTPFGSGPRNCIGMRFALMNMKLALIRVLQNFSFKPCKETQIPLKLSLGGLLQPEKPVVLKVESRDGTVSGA
CYP3A4(BFC), sequence (P08684 whole entry): as above
c-Raf-1, sequence (P04049 whole entry, looked up): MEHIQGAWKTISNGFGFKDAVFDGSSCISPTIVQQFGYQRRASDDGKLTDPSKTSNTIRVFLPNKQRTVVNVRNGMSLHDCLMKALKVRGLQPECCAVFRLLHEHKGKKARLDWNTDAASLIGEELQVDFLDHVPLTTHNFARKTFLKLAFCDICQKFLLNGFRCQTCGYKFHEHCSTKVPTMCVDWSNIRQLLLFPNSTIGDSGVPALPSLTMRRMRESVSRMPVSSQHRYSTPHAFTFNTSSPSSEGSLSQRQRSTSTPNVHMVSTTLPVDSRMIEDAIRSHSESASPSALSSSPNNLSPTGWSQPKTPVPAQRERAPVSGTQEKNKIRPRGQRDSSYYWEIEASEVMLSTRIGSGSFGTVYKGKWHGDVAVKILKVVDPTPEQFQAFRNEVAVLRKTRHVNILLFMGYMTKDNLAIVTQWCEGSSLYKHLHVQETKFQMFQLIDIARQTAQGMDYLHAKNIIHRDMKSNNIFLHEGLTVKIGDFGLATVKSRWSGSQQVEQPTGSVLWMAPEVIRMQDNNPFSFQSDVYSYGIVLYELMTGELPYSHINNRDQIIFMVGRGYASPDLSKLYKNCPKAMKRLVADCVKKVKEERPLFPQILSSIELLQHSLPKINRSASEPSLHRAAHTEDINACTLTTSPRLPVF
CYP1A2, sequence (P05177 whole entry): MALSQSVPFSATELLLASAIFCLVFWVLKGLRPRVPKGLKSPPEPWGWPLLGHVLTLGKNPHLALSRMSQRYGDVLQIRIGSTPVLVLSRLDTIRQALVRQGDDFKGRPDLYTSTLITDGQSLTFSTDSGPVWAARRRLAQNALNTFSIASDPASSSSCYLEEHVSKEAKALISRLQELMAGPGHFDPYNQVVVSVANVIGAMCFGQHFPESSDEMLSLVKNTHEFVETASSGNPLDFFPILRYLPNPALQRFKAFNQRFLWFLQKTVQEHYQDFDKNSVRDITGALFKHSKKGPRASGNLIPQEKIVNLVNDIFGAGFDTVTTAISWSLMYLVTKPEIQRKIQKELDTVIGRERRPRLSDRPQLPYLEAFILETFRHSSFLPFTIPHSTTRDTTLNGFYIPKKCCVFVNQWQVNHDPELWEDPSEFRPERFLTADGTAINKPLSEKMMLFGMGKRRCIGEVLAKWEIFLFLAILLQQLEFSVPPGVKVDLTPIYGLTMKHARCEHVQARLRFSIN
B-Raf (Homo sapiens (Human), UniProt P15056), sequence (P15056 whole entry): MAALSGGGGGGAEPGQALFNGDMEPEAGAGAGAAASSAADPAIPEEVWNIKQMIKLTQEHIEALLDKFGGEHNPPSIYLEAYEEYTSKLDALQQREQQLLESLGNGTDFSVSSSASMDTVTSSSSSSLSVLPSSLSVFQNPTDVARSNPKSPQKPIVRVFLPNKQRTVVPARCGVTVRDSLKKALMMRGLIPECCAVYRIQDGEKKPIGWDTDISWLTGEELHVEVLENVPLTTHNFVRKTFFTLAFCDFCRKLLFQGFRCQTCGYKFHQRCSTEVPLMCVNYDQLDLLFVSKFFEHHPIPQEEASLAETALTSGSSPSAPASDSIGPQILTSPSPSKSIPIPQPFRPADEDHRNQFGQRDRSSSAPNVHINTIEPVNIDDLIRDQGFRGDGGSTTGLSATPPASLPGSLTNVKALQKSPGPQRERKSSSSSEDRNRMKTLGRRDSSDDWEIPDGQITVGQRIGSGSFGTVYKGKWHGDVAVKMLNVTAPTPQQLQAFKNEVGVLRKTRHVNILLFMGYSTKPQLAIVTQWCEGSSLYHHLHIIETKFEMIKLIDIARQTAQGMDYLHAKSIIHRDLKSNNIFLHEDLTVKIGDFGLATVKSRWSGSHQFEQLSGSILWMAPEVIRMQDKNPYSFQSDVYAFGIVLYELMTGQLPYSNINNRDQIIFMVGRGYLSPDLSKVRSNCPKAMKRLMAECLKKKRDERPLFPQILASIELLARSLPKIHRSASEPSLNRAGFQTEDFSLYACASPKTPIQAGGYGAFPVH
B-Raf V600E, sequence (P15056 whole entry V600E): as the sequence (P15056 whole entry) above, with V600E counted along it
CYP2D6, sequence (P10635 whole entry): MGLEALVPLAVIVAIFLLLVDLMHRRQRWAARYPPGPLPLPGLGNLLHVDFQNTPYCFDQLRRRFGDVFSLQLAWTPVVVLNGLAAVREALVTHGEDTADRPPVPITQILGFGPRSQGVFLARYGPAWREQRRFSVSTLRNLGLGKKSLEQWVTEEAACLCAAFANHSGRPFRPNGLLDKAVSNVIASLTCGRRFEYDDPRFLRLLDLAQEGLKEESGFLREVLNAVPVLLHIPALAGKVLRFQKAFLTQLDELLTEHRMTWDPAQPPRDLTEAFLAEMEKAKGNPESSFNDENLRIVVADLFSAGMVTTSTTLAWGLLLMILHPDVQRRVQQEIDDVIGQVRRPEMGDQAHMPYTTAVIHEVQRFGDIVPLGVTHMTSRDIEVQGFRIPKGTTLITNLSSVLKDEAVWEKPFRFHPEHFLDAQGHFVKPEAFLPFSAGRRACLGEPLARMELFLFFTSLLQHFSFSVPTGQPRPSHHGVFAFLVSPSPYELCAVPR
CYP2C9, sequence (P11712 whole entry): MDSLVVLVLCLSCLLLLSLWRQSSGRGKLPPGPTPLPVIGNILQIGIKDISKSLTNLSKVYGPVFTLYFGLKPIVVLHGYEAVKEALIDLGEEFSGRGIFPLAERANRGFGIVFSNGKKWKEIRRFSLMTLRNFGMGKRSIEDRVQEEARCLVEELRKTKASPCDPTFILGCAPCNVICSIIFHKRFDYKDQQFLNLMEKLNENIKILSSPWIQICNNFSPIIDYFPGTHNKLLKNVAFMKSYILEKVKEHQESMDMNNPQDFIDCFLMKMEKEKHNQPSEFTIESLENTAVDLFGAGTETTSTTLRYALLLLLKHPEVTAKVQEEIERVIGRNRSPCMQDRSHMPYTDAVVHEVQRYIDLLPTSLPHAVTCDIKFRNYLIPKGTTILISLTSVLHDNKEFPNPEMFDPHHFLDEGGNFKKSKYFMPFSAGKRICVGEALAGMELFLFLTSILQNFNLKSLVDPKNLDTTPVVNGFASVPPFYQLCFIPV

On to `Cn1cc(Nc2ncnc3[nH]cc(C(=O)c4c(F)ccc(NS(=O)(=O)c5ccc(C(F)(F)F)cc5)c4F)c23)cn1` [P-1062, N-{2,4-Difluoro-3-[4-(1-methyl-1H-pyrazol-4-ylamino)-7H-pyrrolo[2,3-d]pyrimidine-5-carbonyl]-phenyl}-4-trifluoromethyl-benzenesulfonamide], for which the IC50 in [1] was < 0.1 µM; in [3], < 0.1 µM; in data set [4] it was < 0.1 µM; in data set [6] (human, 15 min) it was > 10 µM; in [7], > 10 µM; in data set [8] (setting [12]) it was < 5 µM. The results for the IC50 in data set [9], in data set [10] and in data set [11] were > 10 µM, 5 to 10 µM and 5 to 10 µM, respectively. Also, the “Biochemical activity ratio B/V600E” value in data set [2] is on record as 0.1-10. Also, in [2], the “Biochemical activity ratio B/C” value is on record as >10. For the same compound, the “Biochemical activity ratio V600E/C” value in data set [3] is recorded as >10. In addition, the “turbidity threshold (L, M, H) 1.4” value in [5] was “L (low solubility if the threshold concentration is <31.3 μM)”. The “turbidity threshold (L, M, H) 4.5” value in data set [5] is “L (low solubility if the threshold concentration is <31.3 μM)”. In data set [5], the “turbidity threshold (L, M, H) 6.8” value is given as “L (low solubility if the threshold concentration is <31.3 μM)”. In addition, in data set [5], the “turbidity threshold (L, M, H) 7.4” value is “L (low solubility if the threshold concentration is <31.3 μM)”.

Take `CCc1ccc(S(=O)(=O)Nc2ccc(F)c(C(=O)c3c[nH]c4ncnc(OC)c34)c2F)cc1` [P-1008, N-[2,4-Difluoro-3-(4-methoxy-7H-pyrrolo[2,3-d]pyrimidine-5-carbonyl)-phenyl]-4-ethyl-benzenesulfonamide]: the IC50 in data set [1] is > 0.1 µM; in data set [3] it was > 0.1 µM; in [4], > 0.1 µM; in [6] (human, 15 min) it was > 10 µM; in data set [7] it was > 10 µM; in data set [8], 5 to 10 µM. Further, the IC50 in [9], in data set [10] (setting [13]) and in data set [11] (setting [14]) was > 10 µM throughout. In addition, the “Biochemical activity ratio B/V600E” value in data set [2] is 0.1-10. Moreover, the “Biochemical activity ratio B/C” value in data set [2] is listed as 0.1-10. The “Biochemical activity ratio V600E/C” value in [3] is recorded as 0.1-10. In data set [5], the “turbidity threshold (L, M, H) 1.4” value is on record as “M (moderate solubility if the threshold concentration is 31.3 μM to 250 μM)”. For the same compound, in data set [5], the “turbidity threshold (L, M, H) 4.5” value is “M (moderate solubility if the threshold concentration is 31.3 μM to 250 μM)”. In addition, the “turbidity threshold (L, M, H) 6.8” value in [5] is on record as “L (low solubility if the threshold concentration is <31.3 μM)”. For the same compound, the “turbidity threshold (L, M, H) 7.4” value in data set [5] is “M (moderate solubility if the threshold concentration is 31.3 μM to 250 μM)”.

Take `O=C(c1c(F)ccc(NS(=O)(=O)c2ccc(C(F)(F)F)cc2)c1F)c1c[nH]c2ncnc(NCC3CC3)c12` [P-1052, N-{3-[4-(Cyclopropylmethyl-amino)-7H-pyrrolo[2,3-d]pyrimidine-5-carbonyl]-2,4-difluoro-phenyl}-4-trifluoromethyl-benzenesulfonamide]: the IC50 in data set [1] was < 0.1 µM; in data set [3] it was < 0.1 µM; in [4], < 0.1 µM; in [6] (read-out: Cyp IC50 1A2, CYP1A2, substrate CEC), > 10 µM; in data set [7], < 5 µM; in data set [8] (setting [12]), < 5 µM. Besides, the values for the IC50 in data set [9], in data set [10] and in data set [11] (setting [14]) were > 10 µM, 5 to 10 µM and > 10 µM, respectively. For the same compound, in [2], the “Biochemical activity ratio B/V600E” value is recorded as 0.1-10. Also, the “Biochemical activity ratio B/C” value in data set [2] is >10. In [3], the “Biochemical activity ratio V600E/C” value is >10. In addition, in data set [5], the “turbidity threshold (L, M, H) 1.4” value is on record as “L (low solubility if the threshold concentration is <31.3 μM)”. Further, in data set [5], the “turbidity threshold (L, M, H) 4.5” value was “L (low solubility if the threshold concentration is <31.3 μM)”. For the same compound, in data set [5], the “turbidity threshold (L, M, H) 6.8” value is listed as “L (low solubility if the threshold concentration is <31.3 μM)”. Moreover, the “turbidity threshold (L, M, H) 7.4” value in data set [5] was “L (low solubility if the threshold concentration is <31.3 μM)”.

Regarding `CCCc1ccc(S(=O)(=O)Nc2ccc(F)c(C(=O)c3c[nH]c4ncnc(NC(C)C)c34)c2F)cc1` [P-1055, N-[2,4-Difluoro-3-(4-isopropylamino-7H-pyrrolo[2,3-d]pyrimidine-5-carbonyl)-phenyl]-4-propyl-benzenesulfonamide], the IC50 in data set [1] is < 0.1 µM; in [3] it was > 0.1 µM; in [4], < 0.1 µM; in data set [6] (human, 15 min), > 10 µM; in [7], < 5 µM; in data set [8], 5 to 10 µM. For the same compound, the IC50 in [9] was > 10 µM; in data set [10], 5 to 10 µM; in [11] (setting [14]), > 10 µM. In [2], the “Biochemical activity ratio B/V600E” value was 0.1-10. In addition, in [2], the “Biochemical activity ratio B/C” value is 0.1-10. Moreover, in [3], the “Biochemical activity ratio V600E/C” value is >10. In addition, in [5], the “turbidity threshold (L, M, H) 1.4” value is “L (low solubility if the threshold concentration is <31.3 μM)”. Besides, in data set [5], the “turbidity threshold (L, M, H) 4.5” value is listed as “L (low solubility if the threshold concentration is <31.3 μM)”. Further, the “turbidity threshold (L, M, H) 6.8” value in data set [5] is recorded as “L (low solubility if the threshold concentration is <31.3 μM)”. Besides, in data set [5], the “turbidity threshold (L, M, H) 7.4” value is “L (low solubility if the threshold concentration is <31.3 μM)”.

Regarding `O=C(c1c(F)ccc(NS(=O)(=O)c2ccc(C(F)(F)F)cc2)c1F)c1c[nH]c2ncnc(NCCO)c12` [P-1043, N-{2,4-Difluoro-3-[4-(2-hydroxy-ethylamino)-7H-pyrrolo[2,3-d]pyrimidine-5-carbonyl]-phenyl}-4-trifluoromethyl-benzenesulfonamide], the IC50 is < 0.1 µM in [1]; > 0.1 µM in data set [3]; < 0.1 µM in data set [4]; > 10 µM in [6] (human, 15 min); > 10 µM in [7]; > 10 µM in data set [8] (setting [12]). In addition, the IC50 in data set [9], in data set [10] (setting [13]) and in data set [11] (setting [14]) was > 10 µM in each case. Also, in data set [2], the “Biochemical activity ratio B/V600E” value was 0.1-10. Also, the “Biochemical activity ratio B/C” value in [2] is given as >10. Besides, in data set [3], the “Biochemical activity ratio V600E/C” value is >10. Also, the “turbidity threshold (L, M, H) 1.4” value in data set [5] was “H (high solubility if the threshold concentration is >250 μm)”. In [5], the “turbidity threshold (L, M, H) 4.5” value is reported as “M (moderate solubility if the threshold concentration is 31.3 μM to 250 μM)”. In addition, in data set [5], the “turbidity threshold (L, M, H) 6.8” value is “M (moderate solubility if the threshold concentration is 31.3 μM to 250 μM)”. The “turbidity threshold (L, M, H) 7.4” value in [5] is listed as “M (moderate solubility if the threshold concentration is 31.3 μM to 250 μM)”.

Take `O=C(c1c(F)ccc(NS(=O)(=O)c2ccc(C(F)(F)F)cc2)c1F)c1c[nH]c2ncnc(NC3CCOC3)c12` (stereo not drawn) [P-1054, N-{2,4-Difluoro-3-[4-(tetrahydro-furan-3-ylamino)-7H-pyrrolo[2,3-d]pyrimidine-5-carbonyl]-phenyl}-4-trifluoromethyl-benzenesulfonamide]: the IC50 is < 0.1 µM in data set [1]; < 0.1 µM in [3]; < 0.1 µM in [4]; > 10 µM in data set [6] (human, 15 min); > 10 µM in data set [7]; 5 to 10 µM in [8]. For the same compound, the IC50 in data set [9], in [10] (setting [13]) and in [11] (setting [14]) was > 10 µM each time. Moreover, the “Biochemical activity ratio B/V600E” value in data set [2] is on record as 0.1-10. Moreover, the “Biochemical activity ratio B/C” value in data set [2] is 0.1-10. For the same compound, the “Biochemical activity ratio V600E/C” value in [3] is >10. For the same compound, in data set [5], the “turbidity threshold (L, M, H) 1.4” value is reported as “M (moderate solubility if the threshold concentration is 31.3 μM to 250 μM)”. Also, the “turbidity threshold (L, M, H) 4.5” value in data set [5] was “L (low solubility if the threshold concentration is <31.3 μM)”. Besides, in data set [5], the “turbidity threshold (L, M, H) 6.8” value is given as “L (low solubility if the threshold concentration is <31.3 μM)”. Moreover, the “turbidity threshold (L, M, H) 7.4” value in [5] is on record as “L (low solubility if the threshold concentration is <31.3 μM)”.
